# From PubChem BioAssay (NCI)
#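 Results reflect a 48-hour exposure of cells in 96-well plates to compound at five concentrations. Abbreviation: GI50, concentration required for 50% inhibition of growth. TGI marks complete inhibition of growth.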
# How the values were obtained:
# Experiment in all cases: NCI anticancer screen, dose series, 48 h
# 786-0 renal = system: 786-0 renal
# A498 renal = system: A498 renal
# A549 NSCLC = system: A549 NSCLC
# ACHN renal = system: ACHN renal
# BT-549 breast = system: BT-549 breast
# CAKI-1 renal = system: CAKI-1 renal
# CCRF-CEM leukemia = system: CCRF-CEM leukemia
# COLO 205 colon = system: COLO 205 colon
# DU-145 prostate = system: DU-145 prostate
# EKVX NSCLC = system: EKVX NSCLC
# HCC-2998 colon = system: HCC-2998 colon
# HCT-15 colon = system: HCT-15 colon
# HL-60(TB) leukemia = system: HL-60(TB) leukemia
# HOP-62 NSCLC = system: HOP-62 NSCLC
# HOP-92 NSCLC = system: HOP-92 NSCLC
# HS 578T breast = system: HS 578T breast
# HT29 colon = system: HT29 colon
# IGROV1 ovarian = system: IGROV1 ovarian
# K-562 leukemia = system: K-562 leukemia
# KM12 colon = system: KM12 colon
# LOX IMVI melanoma = system: LOX IMVI melanoma
# M14 melanoma = system: M14 melanoma
# MALME-3M melanoma = system: MALME-3M melanoma
# MCF7 breast = system: MCF7 breast
# MDA-MB-231 breast = system: MDA-MB-231 breast
# MDA-MB-435 = system: MDA-MB-435
# MOLT-4 leukemia = system: MOLT-4 leukemia
# NCI-H226 lung = system: NCI-H226 lung
# NCI-H23 lung = system: NCI-H23 lung
# NCI-H522 lung = system: NCI-H522 lung
# OVCAR-5 ovarian = system: OVCAR-5 ovarian
# OVCAR-8 ovarian = system: OVCAR-8 ovarian
# PC-3 prostate = system: PC-3 prostate
# RPMI-8226 leukemia = system: RPMI-8226 leukemia
# SF-268 CNS = system: SF-268 CNS
# SF-295 CNS = system: SF-295 CNS
# SF-539 CNS = system: SF-539 CNS
# SK-MEL-2 melanoma = system: SK-MEL-2 melanoma
# SK-MEL-28 melanoma = system: SK-MEL-28 melanoma
# SK-MEL-5 melanoma = system: SK-MEL-5 melanoma
# SK-OV-3 ovarian = system: SK-OV-3 ovarian
# SN12C renal = system: SN12C renal
# SNB-19 CNS = system: SNB-19 CNS
# SNB-75 CNS = system: SNB-75 CNS
# SR leukemia = system: SR leukemia
# SW-620 colon = system: SW-620 colon
# T-47D breast = system: T-47D breast
# TK-10 renal = system: TK-10 renal
# U251 CNS = system: U251 CNS
# UACC-257 melanoma = system: UACC-257 melanoma
# UACC-62 melanoma = system: UACC-62 melanoma
# NCI-H460 lung = system: NCI-H460 lung
# OVCAR-3 ovarian = system: OVCAR-3 ovarian
# OVCAR-4 ovarian = system: OVCAR-4 ovarian
# RXF 393 renal = system: RXF 393 renal
# UO-31 renal = system: UO-31 renal
smiles,measurement,setting,value
CSc1nn2c(-c3ccc4ccccc4c3)ccnc2c1C#N,GI50,786-0 renal,2.11 µM
same,TGI,786-0 renal,> 100 µM
same,GI50,A498 renal,0.176 µM
same,TGI,A498 renal,0.897 µM
same,GI50,A549 NSCLC,0.828 µM
same,TGI,A549 NSCLC,> 100 µM
same,GI50,ACHN renal,1.14 µM
same,TGI,ACHN renal,> 100 µM
same,GI50,BT-549 breast,2.29 µM
same,TGI,BT-549 breast,> 100 µM
same,GI50,CAKI-1 renal,0.55 µM
same,TGI,CAKI-1 renal,> 100 µM
same,GI50,CCRF-CEM leukemia,7.51 µM
same,TGI,CCRF-CEM leukemia,> 100 µM
same,GI50,COLO 205 colon,0.727 µM
same,TGI,COLO 205 colon,> 100 µM
same,GI50,DU-145 prostate,6.99 µM
same,TGI,DU-145 prostate,> 100 µM
same,GI50,EKVX NSCLC,3.04 µM
same,TGI,EKVX NSCLC,> 100 µM
same,GI50,HCC-2998 colon,6.02 µM
same,TGI,HCC-2998 colon,> 100 µM
same,GI50,HCT-15 colon,0.39 µM
same,TGI,HCT-15 colon,> 100 µM
same,GI50,HL-60(TB) leukemia,0.668 µM
same,TGI,HL-60(TB) leukemia,> 100 µM
same,GI50,HOP-62 NSCLC,1.09 µM
same,TGI,HOP-62 NSCLC,> 100 µM
same,GI50,HOP-92 NSCLC,1.71 µM
same,TGI,HOP-92 NSCLC,6.55 µM
same,GI50,HS 578T breast,1.05 µM
same,TGI,HS 578T breast,> 100 µM
same,GI50,HT29 colon,0.454 µM
same,TGI,HT29 colon,> 100 µM
same,GI50,IGROV1 ovarian,0.763 µM
same,TGI,IGROV1 ovarian,> 100 µM
same,GI50,K-562 leukemia,0.306 µM
same,TGI,K-562 leukemia,> 100 µM
same,GI50,KM12 colon,0.49 µM
same,TGI,KM12 colon,> 100 µM
same,GI50,LOX IMVI melanoma,0.754 µM
same,TGI,LOX IMVI melanoma,> 100 µM
same,GI50,M14 melanoma,0.39 µM
same,TGI,M14 melanoma,27.4 µM
same,GI50,MALME-3M melanoma,0.663 µM
same,TGI,MALME-3M melanoma,44.5 µM
same,GI50,MCF7 breast,1.3 µM
same,TGI,MCF7 breast,> 100 µM
same,GI50,MDA-MB-231 breast,1.11 µM
same,TGI,MDA-MB-231 breast,5.88 µM
same,GI50,MDA-MB-435,0.229 µM
same,TGI,MDA-MB-435,0.641 µM
same,GI50,MOLT-4 leukemia,0.668 µM
same,TGI,MOLT-4 leukemia,> 100 µM
same,GI50,NCI-H226 lung,2.81 µM
same,TGI,NCI-H226 lung,> 100 µM
same,GI50,NCI-H23 lung,2.04 µM
same,TGI,NCI-H23 lung,> 100 µM
same,GI50,NCI-H522 lung,0.442 µM
same,TGI,NCI-H522 lung,> 100 µM
same,GI50,OVCAR-5 ovarian,5.14 µM
same,TGI,OVCAR-5 ovarian,> 100 µM
same,GI50,OVCAR-8 ovarian,0.944 µM
same,TGI,OVCAR-8 ovarian,> 100 µM
same,GI50,PC-3 prostate,2.98 µM
same,TGI,PC-3 prostate,> 100 µM
same,GI50,RPMI-8226 leukemia,0.599 µM
same,TGI,RPMI-8226 leukemia,> 100 µM
same,GI50,SF-268 CNS,1.29 µM
same,TGI,SF-268 CNS,> 100 µM
same,GI50,SF-295 CNS,1.78 µM
same,TGI,SF-295 CNS,> 100 µM
same,GI50,SF-539 CNS,1.3 µM
same,TGI,SF-539 CNS,64.8 µM
same,GI50,SK-MEL-2 melanoma,0.874 µM
same,TGI,SK-MEL-2 melanoma,> 100 µM
same,GI50,SK-MEL-28 melanoma,1.16 µM
same,TGI,SK-MEL-28 melanoma,> 100 µM
same,GI50,SK-MEL-5 melanoma,0.693 µM
same,TGI,SK-MEL-5 melanoma,> 100 µM
same,GI50,SK-OV-3 ovarian,2.2 µM
same,TGI,SK-OV-3 ovarian,> 100 µM
same,GI50,SN12C renal,0.857 µM
same,TGI,SN12C renal,> 100 µM
same,GI50,SNB-19 CNS,1.22 µM
same,TGI,SNB-19 CNS,> 100 µM
same,GI50,SNB-75 CNS,0.197 µM
same,TGI,SNB-75 CNS,1.51 µM
same,GI50,SR leukemia,0.343 µM
same,TGI,SR leukemia,> 100 µM
same,GI50,SW-620 colon,0.428 µM
same,TGI,SW-620 colon,> 100 µM
same,GI50,T-47D breast,4.05 µM
same,TGI,T-47D breast,> 100 µM
same,GI50,TK-10 renal,5.09 µM
same,TGI,TK-10 renal,> 100 µM
same,GI50,U251 CNS,0.989 µM
same,TGI,U251 CNS,> 100 µM
same,GI50,UACC-257 melanoma,6.93 µM
same,TGI,UACC-257 melanoma,> 100 µM
same,GI50,UACC-62 melanoma,0.439 µM
same,TGI,UACC-62 melanoma,6.51 µM
CCN(CC)CCCN1C(=O)c2c(c(C)c3c(oc4ccc(O)cc43)c2C)C1=O,GI50,786-0 renal,1.74 µM
same,TGI,786-0 renal,3.32 µM
same,GI50,A498 renal,12.6 µM
same,TGI,A498 renal,27.2 µM
same,GI50,A549 NSCLC,1.65 µM
same,TGI,A549 NSCLC,3.23 µM
same,GI50,ACHN renal,1.62 µM
same,TGI,ACHN renal,2.98 µM
same,GI50,BT-549 breast,1.75 µM
same,TGI,BT-549 breast,3.26 µM
same,GI50,CAKI-1 renal,2.33 µM
same,TGI,CAKI-1 renal,6.52 µM
same,GI50,COLO 205 colon,2.64 µM
same,TGI,COLO 205 colon,10.8 µM
same,GI50,DU-145 prostate,1.84 µM
same,TGI,DU-145 prostate,3.29 µM
same,GI50,EKVX NSCLC,1.69 µM
same,TGI,EKVX NSCLC,3.27 µM
same,GI50,HCC-2998 colon,2.67 µM
same,TGI,HCC-2998 colon,7.39 µM
same,GI50,HCT-15 colon,1.68 µM
same,TGI,HCT-15 colon,3.22 µM
same,GI50,HL-60(TB) leukemia,1.57 µM
same,TGI,HL-60(TB) leukemia,3.43 µM
same,GI50,HOP-92 NSCLC,1.33 µM
same,TGI,HOP-92 NSCLC,2.81 µM
same,GI50,HS 578T breast,2.15 µM
same,TGI,HS 578T breast,5.31 µM
same,GI50,HT29 colon,1.55 µM
same,TGI,HT29 colon,3.02 µM
same,GI50,IGROV1 ovarian,1.74 µM
same,TGI,IGROV1 ovarian,3.31 µM
same,GI50,K-562 leukemia,1.71 µM
same,TGI,K-562 leukemia,3.77 µM
same,GI50,KM12 colon,1.83 µM
same,TGI,KM12 colon,3.55 µM
same,GI50,LOX IMVI melanoma,1.79 µM
same,TGI,LOX IMVI melanoma,3.32 µM
same,GI50,M14 melanoma,1.76 µM
same,TGI,M14 melanoma,3.2 µM
same,GI50,MALME-3M melanoma,1.73 µM
same,TGI,MALME-3M melanoma,3.25 µM
same,GI50,MCF7 breast,1.81 µM
same,TGI,MCF7 breast,3.71 µM
same,GI50,MDA-MB-231 breast,1.91 µM
same,TGI,MDA-MB-231 breast,3.58 µM
same,GI50,MDA-MB-435,1.84 µM
same,TGI,MDA-MB-435,3.53 µM
same,GI50,MOLT-4 leukemia,1.8 µM
same,TGI,MOLT-4 leukemia,4.26 µM
same,GI50,NCI-H226 lung,1.93 µM
same,TGI,NCI-H226 lung,4.27 µM
same,GI50,NCI-H23 lung,1.99 µM
same,TGI,NCI-H23 lung,3.8 µM
same,GI50,NCI-H460 lung,1.83 µM
same,TGI,NCI-H460 lung,3.47 µM
same,GI50,NCI-H522 lung,1.84 µM
same,TGI,NCI-H522 lung,3.75 µM
same,GI50,OVCAR-3 ovarian,1.85 µM
same,TGI,OVCAR-3 ovarian,3.42 µM
same,GI50,OVCAR-4 ovarian,1.93 µM
same,TGI,OVCAR-4 ovarian,3.68 µM
same,GI50,OVCAR-5 ovarian,1.7 µM
same,TGI,OVCAR-5 ovarian,3.13 µM
same,GI50,RPMI-8226 leukemia,1.85 µM
same,TGI,RPMI-8226 leukemia,4.28 µM
same,GI50,RXF 393 renal,1.49 µM
same,TGI,RXF 393 renal,2.97 µM
same,GI50,SF-268 CNS,1.69 µM
same,TGI,SF-268 CNS,3.43 µM
same,GI50,SF-295 CNS,1.82 µM
same,TGI,SF-295 CNS,3.26 µM
same,GI50,SF-539 CNS,1.72 µM
same,TGI,SF-539 CNS,3.11 µM
same,GI50,SK-MEL-2 melanoma,17 µM
same,TGI,SK-MEL-2 melanoma,35.9 µM
same,GI50,SK-MEL-28 melanoma,1.82 µM
same,TGI,SK-MEL-28 melanoma,3.38 µM
same,GI50,SK-MEL-5 melanoma,1.71 µM
same,TGI,SK-MEL-5 melanoma,3.12 µM
same,GI50,SK-OV-3 ovarian,1.7 µM
same,TGI,SK-OV-3 ovarian,3.1 µM
same,GI50,SN12C renal,1.78 µM
same,TGI,SN12C renal,3.36 µM
same,GI50,SNB-75 CNS,1.59 µM
same,TGI,SNB-75 CNS,2.98 µM
same,GI50,SR leukemia,0.765 µM
same,TGI,SR leukemia,2.78 µM
same,GI50,SW-620 colon,1.7 µM
same,TGI,SW-620 colon,3.52 µM
same,GI50,T-47D breast,2.17 µM
same,TGI,T-47D breast,5.33 µM
same,GI50,TK-10 renal,1.84 µM
same,TGI,TK-10 renal,3.35 µM
same,GI50,U251 CNS,1.58 µM
same,TGI,U251 CNS,2.98 µM
same,GI50,UACC-257 melanoma,1.88 µM
same,TGI,UACC-257 melanoma,3.92 µM
same,GI50,UACC-62 melanoma,16.1 µM
same,TGI,UACC-62 melanoma,31.5 µM
same,GI50,UO-31 renal,1.58 µM
same,TGI,UO-31 renal,3.01 µM
